Measurements reported in patent US20110160249A1, “5-LIPOXYGENASE-ACTIVATING PROTEIN INHIBITOR” (priority 2008, published 2011).
In brackets after ≈: the same amount, converted by molar mass.

What was measured:
[1] = Gravimetric Vapour Sorption (GVS); format: physicochemical; conditions: after the full sorption/desorption cycle
[2] = Thermodynamic Aqueous Solubility by HPLC; format: physicochemical; conditions: water, 25° C.
Protocol: Aqueous solubility was determined by suspending sufficient compound in water to give a maximum final concentration of ≧10 mg·ml^−1 of the parent free-form of the compound. The suspension was equilibrated at 25° C. for 24 hours then the pH was measured. The suspension was then filtered through a glass fibre C filter into a 96 well plate. The filtrate was then diluted by a factor of 101. Quantitation was by HPLC with reference to a standard solution of approximately 0.1 mg·ml^−1 in DMSO. Different volumes of the standard, diluted and undiluted sample solutions were injected. The solubility was calculated using the peak areas determined by integration of the peak found at the same retention time as the principal peak in the standard injection.
Analysis was performed on an Agilent HP1100 series system equipped with a diode array detector and using ChemStation software vB.02.01-SR1.

[3] = rat, in vivo, po
[4] = test system: allergen-induced early and late phases of lung-volume decline; conditions: clinical trials; cited from earlier work
chronic asthma = conditions: clinical studies; cited from earlier work
[5] = Liquid formulations (oral solutions/suspensions); format: physicochemical; conditions: certain solvent systems, below pH values of about 9-10
Protocol: Values of pH reported were estimated based on pH indicating strips. […] Accordingly, provided in certain embodiments herein were formulations having a pH above about 9, above about 10 or of about 10. In certain embodiments, the formulation was buffered at a pH of about 10. All formulations prepared were sonicated for about 10 minutes.

[6] = test system: whole blood ionophore-stimulated leukotriene LTB4; experiment: Phase I study, whole blood ionophore-stimulated LTB4; format: in vivo, human
From the text: Study Design: Single center, double-blind, randomized, placebo-controlled, single ascending dose followed by multiple ascending dose study.
Sample Size: (1) Single Dose Phase: eight (8) subjects (6 active, 2 placebo) per dose level; up to 5 dose levels are planned (a total of 40 subjects if all 5 dose levels are completed); and (2) Multiple Dose Phase: eight (8) subjects (6 active, 2 placebo) per dose level; up to 4 dose levels are planned (a total of 32 subjects if all 4 dose levels are completed).
Formulations: Compound 2 was supplied as an oral powder for reconstitution. Placebo solution matched. […] The placebo differed only in the absence of the active.
The following dosing cohorts were used:
Routes of Administration: All doses were administered orally with approximately 100 mL of water rinse. Subjects were fasted for at least 8 hours prior to dosing and for 2 hours after dosing. For BID dosing in the Multiple Dose Phase, when applicable, subjects were fasted for at least 2 hours prior to the second daily dose.
Plasma concentrations of Compound 1 were determined using a validated LC/MS method. Whole blood ionophore-stimulated leukotriene LTB4 and urinary LTE4 production were assayed by ELISA and mass spectrometry, respectively.
Analysis of Samples: Concentrations of Compound 1 was determined in plasma samples collected from subjects. Similarly, concentrations of LTB4 in plasma and urinary LTE4 were determined in blood and urine samples collected.

CCOc1ccc(-c2ccc(Cn3c(CC(C)(C)C(=O)[O-])c(SC(C)(C)C)c4cc(OCc5ccc(C)cn5)ccc43)cc2)cn1.[Na+] [Amorphous Phase A]
XRPD pattern after the GVS experiment [1]: No changes were observed | Appearance of mixture after equilibration for 24 hours [2]: Suspension | Concentration of filtrate (as mg/mL of free base) ([2]; 24 hours, listed as Compound 2 Phase A): >10 mg/mL | plasma exposures [3]: equivalent plasma exposures

O=C(O)[C@@H](c1ccc(OCc2ccc3ccccc3n2)cc1)C1CCCC1 [BAYX-1005]
efficacy in allergen-challenge studies (allergen-induced early and late phases of lung-volume decline) [4]: show efficacy

CC(c1cc2ccccc2s1)N(O)C(N)=O (centres unmarked) [Zileuton, zileuton]
efficacy in allergen-challenge studies (allergen-induced early and late phases of lung-volume decline) [4]: not effective | efficacy in chronic asthma (chronic asthma): exhibits clinical efficacy

CC(C)(C)Sc1c(CC(C)(C)C(=O)O)n(Cc2ccc(Cl)cc2)c2ccc(OCc3ccc4ccccc4n3)cc12 [MK-0591]
efficacy in allergen-challenge studies (allergen-induced early and late phases of lung-volume decline) [4]: show efficacy | efficacy in chronic asthma (chronic asthma): shows efficacy

CCOc1ccc(-c2ccc(Cn3c(CC(C)(C)C(=O)O)c(SC(C)(C)C)c4cc(OCc5ccc(C)cn5)ccc43)cc2)cn1 [Compound 1, 3-[3-(tert-butylsulfanyl)-1-[4-(6-ethoxy-pyridin-3-yl)benzyl]-5-(5-methyl-pyridin-2-yl-methoxy)-1H-indol-2-yl]-2,2-dimethylpropanoic acid]
solubility in words [5]: sparingly soluble | EC50 ([6]; Homo sapiens, dose range studied, read-out: EC50, plasma concentration vs inhibition of ionophore-stimulated LTB4 production): ~0.07 µg/mL (≈ 0.11 µM) | EC90 ([6]; Homo sapiens, dose range studied, read-out: EC90, plasma concentration vs inhibition of ionophore-stimulated LTB4 production): ~0.32 µg/mL (≈ 0.502 µM) | plasma concentration at which complete inhibition of ionophore-stimulated LTB4 production was reached ([6]; in vivo): 1000 to 1500 ng/mL

CC(C)c1ccc2c(c1)c(SC(C)(C)C)c(CC(C)(C)C(=O)O)n2Cc1ccc(Cl)cc1 [MK-866]
efficacy in allergen-challenge studies (allergen-induced early and late phases of lung-volume decline) [4]: show efficacy
